Reference: patent US4156724A, “N-acylamino-alpha-arylacetamido cephalosporins and antibacterial compositions and methods containing them” (Sumitomo Chemical Company, Limited, priority 1974, dated 1979)
Values after ≈ are worked out from the molar mass of the structure shown.

Experiments:
Format in all cases: cell-based
[1] = tested on: Enterobacter aerogeneus No. 75; assay: Minimum Inhibitory Concentration, Enterobacter aerogeneus No. 75; conditions: Enterobacter aerogeneus No. 75; for MIC: read-out: Minimum Inhibitory Concentration
Method: (§1) anti-microbial activity tests were carried out on the compounds obtained in the Examples.

Proteus vulgaris HX 19 = assay: Minimum Inhibitory Concentration, Proteus vulgaris HX 19; conditions: Proteus vulgaris HX 19; for MIC: HX19, read-out: Minimum Inhibitory Concentration
Method: as §1

[2] = tested on: Klebsiella pneumoniae 602; assay: Minimum Inhibitory Concentration, Klebsiella pneumoniae 602; conditions: for MIC: Klebsiella pneumoniae, 602, Klebsiella pneumoniae 602, read-out: Minimum Inhibitory Concentration
Method: as §1

[3] = tested on: Staphylococcus aureus FS 289; assay: Minimum Inhibitory Concentration, Staphylococcus aureus FS 289; conditions: Staphylococcus aureus FS 289, strain resistant to penicillin; for MIC: FS289, read-out: Minimum Inhibitory Concentration
Method: as §1
*Staphylococcus aureus FS 289: strain resistant to penicillin

Serratia No. 72 = assay: Minimum Inhibitory Concentration, Serratia No. 72
Method: as §1

Escherichia coli NIHJ = assay: Minimum Inhibitory Concentration, Escherichia coli NIHJ; conditions: Escherichia coli NIHJ; for MIC: read-out: Minimum Inhibitory Concentration
Method: as §1

[4] = tested on: Pseudomonas aeruginosa 104; assay: Minimum Inhibitory Concentration, Pseudomonas aeruginosa 104; conditions: Pseudomonas aeruginosa 104; for MIC: read-out: Minimum Inhibitory Concentration
Method: as §1

[5] = tested on: Staphylococcus aureus 209 P; assay: Minimum Inhibitory Concentration, Staphylococcus aureus 209 P; conditions: Staphylococcus aureus 209 P; for MIC: read-out: Minimum Inhibitory Concentration
Method: as §1

Structure (SMILES)	MIC [1] [µg/mL]	MIC (Proteus vulgaris HX 19) [µg/mL]	MIC [2] [µg/mL]	MIC [3] [µg/mL]	MIC (Serratia No. 72) [µg/mL]	MIC (Escherichia coli NIHJ) [µg/mL]	MIC [4] [µg/mL]	MIC [5] [µg/mL]	Minimum Inhibitory Concentration [1] [µg/mL]	Minimum Inhibitory Concentration (Proteus vulgaris HX 19) [µg/mL]	Minimum Inhibitory Concentration ([2]; Klebsiella pneumoniae 602) [µg/mL]	Minimum Inhibitory Concentration [3] [µg/mL]	Minimum Inhibitory Concentration (Serratia No. 72) [µg/mL]	Minimum Inhibitory Concentration (Escherichia coli NIHJ) [µg/mL]	Minimum Inhibitory Concentration [4] [µg/mL]	Minimum Inhibitory Concentration [5] [µg/mL]
CC(=O)OCC1=C(C(=O)O)N2C(=O)C(NC(=O)[C@H](NC(=O)c3cnc4cccnc4c3O)c3ccc(N)cc3)C2SC1 (stereo partly drawn) [Example 50, 7-[D-α-(4-Hydroxy-1,5-naphthyridine-3-carboxyamido)-α-p-aminophenylacetamido]cephalosporanic Acid]	6.25 (≈ 10.5 µM)	0.39 (≈ 0.658 µM)	3.13 (≈ 5.28 µM)	6.25 (≈ 10.5 µM)	50 (≈ 84.4 µM)	3.13 (≈ 5.28 µM)	6.25 (≈ 10.5 µM)	1.56 (≈ 2.63 µM)	–	–	–	–	–	–	–	–
CC(=O)OCC1=C(C(=O)O)N2C(=O)C(NC(=O)[C@H](NC(=O)c3cnccc3O)c3cccc(N)c3)C2SC1 (stereo partly drawn) [Example 51, 7-[D-α-(4-Hydroxypyridine-3-carbonamide)-α -m-aminophenylacetamido]cephalosporanic acid]	25 (≈ 46.2 µM)	0.2 (≈ 0.369 µM)	12.5 (≈ 23.1 µM)	3.13 (≈ 5.78 µM)	> 200	12.5 (≈ 23.1 µM)	6.25 (≈ 11.5 µM)	0.39 (≈ 0.72 µM)	–	–	–	–	–	–	–	–
Cc1nnc(SCC2=C(C(=O)O)N3C(=O)C(NC(=O)[C@H](NC(=O)c4cnc5cccnc5c4O)c4ccc(N)cc4)C3SC2)s1 (stereo partly drawn) [Example 52, 7-[D-α-(4-Hydroxy-1,5-naphthyridine-3-carbonamido)-α-p-aminophenylacetamido]-3-(2-methyl-1,3,4-thiadiazol-5yl)thiomethyl-3-cephem-4-carboxylic acid]	3.13 (≈ 4.71 µM)	0.1 (≈ 0.15 µM)	3.13 (≈ 4.71 µM)	6.25 (≈ 9.4 µM)	12.5 (≈ 18.8 µM)	1.56 (≈ 2.35 µM)	6.25 (≈ 9.4 µM)	1.56 (≈ 2.35 µM)	–	–	–	–	–	–	–	–
CC(=O)OCC1=C(C(=O)O)N2C(=O)C(NC(=O)C(NC(=O)c3cnc4cccnc4c3O)c3cccc(N)c3)C2SC1 (centres unmarked) [Example 53]	6.25 (≈ 10.5 µM)	0.39 (≈ 0.658 µM)	1.56 (≈ 2.63 µM)	6.25 (≈ 10.5 µM)	50 (≈ 84.4 µM)	3.13 (≈ 5.28 µM)	6.25 (≈ 10.5 µM)	1.56 (≈ 2.63 µM)	–	–	–	–	–	–	–	–
Nc1cccc(C(NC(=O)c2cnc3cccnc3c2O)C(=O)NC2C(=O)N3C(C(=O)O)=C(CSc4cnn[nH]4)CSC23)c1 (centres unmarked) [Example 54]	3.13 (≈ 4.94 µM)	0.1 (≈ 0.158 µM)	3.13 (≈ 4.94 µM)	6.25 (≈ 9.86 µM)	12.5 (≈ 19.7 µM)	1.56 (≈ 2.46 µM)	3.13 (≈ 4.94 µM)	0.78 (≈ 1.23 µM)	–	–	–	–	–	–	–	–
Cn1nnnc1SCC1=C(C(=O)[O-])N2C(=O)C(NC(=O)C(NC(=O)c3cnc4cccnc4c3O)c3cccc(N)c3)C2SC1.[Na+] (centres unmarked) [Example 55]	–	–	–	–	–	–	–	–	3.13	0.1	3.13	3.13	12.5	1.56	3.13	0.78
Cc1nnc(SCC2=C(C(=O)O)N3C(=O)C(NC(=O)C(NC(=O)c4cnccc4O)c4ccc(N)cc4)C3SC2)s1 (centres unmarked) [Example 56]	12.5 (≈ 20.4 µM)	0.1 (≈ 0.163 µM)	6.25 (≈ 10.2 µM)	6.25 (≈ 10.2 µM)	50 (≈ 81.5 µM)	6.25 (≈ 10.2 µM)	6.25 (≈ 10.2 µM)	0.39 (≈ 0.635 µM)	–	–	–	–	–	–	–	–
Cn1nnnc1SCC1=C(C(=O)O)N2C(=O)C(NC(=O)C(NC(=O)c3cnccc3O)c3cccc(N)c3)C2SC1 (centres unmarked) [Example 57]	12.5 (≈ 20.9 µM)	0.1 (≈ 0.167 µM)	6.25 (≈ 10.5 µM)	6.25 (≈ 10.5 µM)	50 (≈ 83.7 µM)	6.25 (≈ 10.5 µM)	6.25 (≈ 10.5 µM)	0.39 (≈ 0.653 µM)	–	–	–	–	–	–	–	–
CC(=O)OCC1=C(C(=O)O)N2C(=O)C(NC(=O)C(NC(=O)c3ccnnc3O)c3ccc(N)cc3)C2SC1 (centres unmarked) [Example 58]	25 (≈ 46.1 µM)	0.2 (≈ 0.369 µM)	12.5 (≈ 23 µM)	3.13 (≈ 5.77 µM)	> 200	12.5 (≈ 23 µM)	6.25 (≈ 11.5 µM)	0.39 (≈ 0.719 µM)	–	–	–	–	–	–	–	–
Nc1cccc(C(NC(=O)c2ccnnc2O)C(=O)NC2C(=O)N3C(C(=O)O)=C(CSc4nncs4)CSC23)c1 (centres unmarked) [Example 59]	12.5 (≈ 20.8 µM)	0.1 (≈ 0.166 µM)	6.25 (≈ 10.4 µM)	6.25 (≈ 10.4 µM)	50 (≈ 83.2 µM)	6.25 (≈ 10.4 µM)	6.25 (≈ 10.4 µM)	0.39 (≈ 0.649 µM)	–	–	–	–	–	–	–	–
Cn1nnnc1SCC1=C(C(=O)O)N2C(=O)C(NC(=O)C(NC(=O)c3ccnnc3O)c3cccc(N)c3)C2SC1 (centres unmarked) [Example 60]	12.5 (≈ 20.9 µM)	0.1 (≈ 0.167 µM)	6.25 (≈ 10.4 µM)	6.25 (≈ 10.4 µM)	50 (≈ 83.5 µM)	6.25 (≈ 10.4 µM)	6.25 (≈ 10.4 µM)	0.39 (≈ 0.651 µM)	–	–	–	–	–	–	–	–
Cc1nnc(SCC2=C(C(=O)O)N3C(=O)C(NC(=O)C(NC(=O)c4cncnc4O)c4ccc(N)cc4)C3SC2)s1 (centres unmarked) [Example 61]	25 (≈ 40.7 µM)	0.2 (≈ 0.325 µM)	12.5 (≈ 20.3 µM)	6.25 (≈ 10.2 µM)	> 200	25 (≈ 40.7 µM)	6.25 (≈ 10.2 µM)	0.39 (≈ 0.634 µM)	–	–	–	–	–	–	–	–
CC(=O)OCC1=C(C(=O)O)N2C(=O)C(NC(=O)C(NC(=O)c3cnc4nc(C)ccc4c3O)c3cccc(N)c3)C2SC1 (centres unmarked) [Example 62]	25 (≈ 41.2 µM)	0.39 (≈ 0.643 µM)	3.13 (≈ 5.16 µM)	6.25 (≈ 10.3 µM)	100 (≈ 165 µM)	12.5 (≈ 20.6 µM)	6.25 (≈ 10.3 µM)	1.56 (≈ 2.57 µM)	–	–	–	–	–	–	–	–
Cc1ccc2c(O)c(C(=O)NC(C(=O)NC3C(=O)N4C(C(=O)O)=C(CSc5nnn(C)n5)CSC34)c3cccc(N)c3)cnc2n1 (centres unmarked) [Example 63]	12.5 (≈ 18.9 µM)	0.1 (≈ 0.151 µM)	1.56 (≈ 2.35 µM)	6.25 (≈ 9.43 µM)	50 (≈ 75.4 µM)	6.25 (≈ 9.43 µM)	6.25 (≈ 9.43 µM)	1.56 (≈ 2.35 µM)	–	–	–	–	–	–	–	–
Nc1cccc([C@@H](NC(=O)c2cnc3cccnc3c2O)C(=O)NC2C(=O)N3C(C(=O)O)=C(CSc4nncs4)CSC23)c1 (stereo partly drawn) [Example 64, 7-[D-α-(4-Hydroxy-1,5-naphthyridine-3-carbonamido)-α-m-aminophenylacetamido]-3-(1,3,4-thiadiazol-5-yl)thiomethyl-3-cephem-4-carboxylic acid]	3.13 (≈ 4.81 µM)	0.1 (≈ 0.154 µM)	3.13 (≈ 4.81 µM)	6.25 (≈ 9.6 µM)	12.5 (≈ 19.2 µM)	1.56 (≈ 2.4 µM)	6.25 (≈ 9.6 µM)	1.56 (≈ 2.4 µM)	–	–	–	–	–	–	–	–
Nc1cccc(C(NC(=O)c2cnc3cccnc3c2O)C(=O)NC2C(=O)N3C(C(=O)O)=C(CSc4ccc(O)nn4)CSC23)c1 (centres unmarked) [Example 65]	3.13 (≈ 4.74 µM)	0.2 (≈ 0.303 µM)	3.13 (≈ 4.74 µM)	6.25 (≈ 9.46 µM)	12.5 (≈ 18.9 µM)	3.13 (≈ 4.74 µM)	3.13 (≈ 4.74 µM)	0.78 (≈ 1.18 µM)	–	–	–	–	–	–	–	–
Nc1cccc(C(NC(=O)c2cnc3cccnc3c2O)C(=O)NC2C(=O)N3C(C(=O)O)=C(CSc4nnc(CO)s4)CSC23)c1 (centres unmarked) [Example 66]	3.13 (≈ 4.6 µM)	0.1 (≈ 0.147 µM)	3.13 (≈ 4.6 µM)	6.25 (≈ 9.18 µM)	12.5 (≈ 18.4 µM)	3.13 (≈ 4.6 µM)	3.13 (≈ 4.6 µM)	0.78 (≈ 1.15 µM)	–	–	–	–	–	–	–	–
COc1ccc2ncc(C(=O)NC(C(=O)NC3C(=O)N4C(C(=O)O)=C(CSc5nnnn5C)CSC34)c3cccc(N)c3)c(O)c2n1 (centres unmarked) [Example 67]	3.13 (≈ 4.61 µM)	0.1 (≈ 0.147 µM)	3.13 (≈ 4.61 µM)	3.13 (≈ 4.61 µM)	12.5 (≈ 18.4 µM)	1.56 (≈ 2.3 µM)	3.13 (≈ 4.61 µM)	0.78 (≈ 1.15 µM)	–	–	–	–	–	–	–	–
Cn1nnnc1SCC1=C(C(=O)O)N2C(=O)C(NC(=O)C(NC(=O)c3cnc4cccnc4c3O)c3cccc(N)c3)C2SC1 (centres unmarked) [Example 68]	3.13 (≈ 4.83 µM)	0.1 (≈ 0.154 µM)	3.13 (≈ 4.83 µM)	3.13 (≈ 4.83 µM)	12.5 (≈ 19.3 µM)	1.56 (≈ 2.4 µM)	3.13 (≈ 4.83 µM)	0.78 (≈ 1.2 µM)	–	–	–	–	–	–	–	–
